According to patent publication US5760048A, “Alpha-mercaptoacrylic acid derivatives having calpain inhibitory activity” (Warner-Lambert Company, priority 1996, dated 1998):
Read-outs that look alike come from different tables or passages of the source.

Legend:
calpain I = molecular target: T1, calpain I (Homo sapiens, UniProt P07384); assay: Assay of Calpain Activity (casein substrate, microplate, Coomassie blue); type: biochemical; design: Calpain I was purified from human erythrocytes; from tissue; host or cells: human erythrocytes
T1 sequence (P07384 1-714): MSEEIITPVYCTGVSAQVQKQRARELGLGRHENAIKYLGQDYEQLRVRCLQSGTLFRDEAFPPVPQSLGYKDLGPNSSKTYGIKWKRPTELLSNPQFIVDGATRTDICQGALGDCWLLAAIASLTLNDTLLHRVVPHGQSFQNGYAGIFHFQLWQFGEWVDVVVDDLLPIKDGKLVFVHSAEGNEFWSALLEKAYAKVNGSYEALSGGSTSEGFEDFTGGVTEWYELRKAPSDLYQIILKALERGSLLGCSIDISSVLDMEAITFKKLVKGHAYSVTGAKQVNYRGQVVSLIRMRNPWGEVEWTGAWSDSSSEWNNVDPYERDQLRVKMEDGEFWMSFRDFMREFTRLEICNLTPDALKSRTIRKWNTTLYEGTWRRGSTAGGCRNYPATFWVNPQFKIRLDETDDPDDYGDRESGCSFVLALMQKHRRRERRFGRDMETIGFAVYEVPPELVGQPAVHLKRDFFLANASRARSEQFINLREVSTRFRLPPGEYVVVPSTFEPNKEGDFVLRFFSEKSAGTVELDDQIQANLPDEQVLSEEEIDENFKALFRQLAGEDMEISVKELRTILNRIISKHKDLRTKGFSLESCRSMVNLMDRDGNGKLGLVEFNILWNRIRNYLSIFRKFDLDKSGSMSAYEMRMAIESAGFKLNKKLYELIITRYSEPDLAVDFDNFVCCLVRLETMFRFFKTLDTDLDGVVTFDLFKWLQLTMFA
T1 sequence (P04632 1-268 partner): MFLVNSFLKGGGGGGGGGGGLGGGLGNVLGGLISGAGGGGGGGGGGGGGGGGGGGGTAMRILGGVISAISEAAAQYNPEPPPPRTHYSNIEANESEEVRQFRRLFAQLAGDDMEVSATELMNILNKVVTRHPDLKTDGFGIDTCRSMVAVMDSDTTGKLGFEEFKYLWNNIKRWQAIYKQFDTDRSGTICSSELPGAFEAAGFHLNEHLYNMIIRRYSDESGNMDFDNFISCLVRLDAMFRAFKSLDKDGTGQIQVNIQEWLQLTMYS
Procedure: In 250 μL of reaction mixture, substrate casein (0.5 mg/mL) was incubated with 0.01 unit (80-120 ng) calpain I, 20 mM dithiothreitol (DTT), 50 mM Tris-HCl (pH 7.4 at 25° C.), and 4 mM CaCl2 at 25° C. for 60 minutes. Two 100-μL aliquots were taken for Coomassie blue binding analysis to quantify the remaining casein.
Calpain I was assayed as described (α-mercaptoacrylic acid). […] Inhibition of these proteases are presented as IC50.

trypsin = molecular target: T2, trypsin (Bos taurus, UniProt P00760); assay: Selectivity: trypsin protease assay (casein substrate); type: biochemical, bovine; details: Table II; read-out: Inhibitory Activity of Thiol-Acrylates, Trypsin (IC50)
T2 construct: purchased Sigma T8003; host or cells: bovine pancreas
T2 sequence (P00760 24-246): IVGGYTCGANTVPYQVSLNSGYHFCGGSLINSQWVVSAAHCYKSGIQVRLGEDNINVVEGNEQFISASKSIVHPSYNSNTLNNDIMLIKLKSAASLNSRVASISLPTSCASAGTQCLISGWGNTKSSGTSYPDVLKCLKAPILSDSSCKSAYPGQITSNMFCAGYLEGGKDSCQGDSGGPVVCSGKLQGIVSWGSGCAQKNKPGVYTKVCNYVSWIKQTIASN
Procedure: (§1) Calpain I was assayed as described (α-mercaptoacrylic acid). Ten to 20 ng papain (papaya latex, Sigma, P3125), 1.25 μg trypsin (bovine pancreas, Sigma, T8003), and 5 μg thermolysin (Bacillus thermoproteolyticus, Sigma, P1512) were assayed using 0.5 mg/mL casein as substrate in the microplate format (250 μL reaction volume), essentially as described by Buroker-Kilgore M., Wang K. K. W., Anal Biochem 1993;208:387-392. Inhibition of these proteases are presented as IC50.

papain = molecular target: T3, papain (Carica papaya, UniProt P00784); assay: Selectivity: papain protease assay (casein substrate); type: biochemical; details: Table II; read-out: Inhibitory Activity of Thiol-Acrylates, Papain (IC50)
T3 construct: purchased Sigma P3125; host or cells: papaya latex
T3 sequence (P00784 134-345): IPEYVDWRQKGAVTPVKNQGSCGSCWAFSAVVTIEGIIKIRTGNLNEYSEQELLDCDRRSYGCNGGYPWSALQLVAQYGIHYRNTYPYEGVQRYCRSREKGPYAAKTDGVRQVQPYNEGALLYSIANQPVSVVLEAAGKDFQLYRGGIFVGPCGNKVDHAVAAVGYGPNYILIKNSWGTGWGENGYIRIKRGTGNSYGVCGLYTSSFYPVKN
Procedure: as §1

thermolysin = molecular target: T4, thermolysin (Bacillus thermoproteolyticus, UniProt P00800); assay: Selectivity: thermolysin protease assay (casein substrate); type: biochemical
T4 construct: purchased Sigma P1512; host or cells: Bacillus thermoproteolyticus
T4 sequence (P00800 233-548): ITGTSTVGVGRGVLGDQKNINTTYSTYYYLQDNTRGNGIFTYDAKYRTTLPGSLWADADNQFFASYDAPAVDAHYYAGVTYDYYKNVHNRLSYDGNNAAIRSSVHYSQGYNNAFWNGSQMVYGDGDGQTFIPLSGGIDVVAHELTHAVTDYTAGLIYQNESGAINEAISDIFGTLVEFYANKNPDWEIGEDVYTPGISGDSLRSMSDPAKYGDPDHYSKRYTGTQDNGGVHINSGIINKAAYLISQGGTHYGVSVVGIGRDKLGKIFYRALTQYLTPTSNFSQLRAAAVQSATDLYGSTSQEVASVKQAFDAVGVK
Procedure: as §1

[1] = tested on: Fetal rat cortical cell cultures; assay: Assay of Lactate Dehydrogenase (LDH): NMDA-induced LDH release; type: cell-based; details: FIG. II; for block of NMDA-induced LDH release (in words): 500 μM NMDA, 200 μM calpain inhibiting compound
Procedure: Seventeen-day-old cultures were pretreated with 200 μM calpain inhibiting compound (when added) for 1 hour before treatment of 500 μM N-methyl-D-aspartate (NMDA) for 30 minutes (in the absence or the presence of the compound).

[2] = tested on: spectrin breakdown in rat cortical cell cultures; assay: Spectrin Breakdown Measurement (immunoblot); type: cell-based; details: NMDA-treated cortical cells, 4-hour post-NMDA
Procedure: Rat cortical cell cultures were treated with NMDA in the absence or presence of calpain inhibiting compounds as described in "Assay of LDH" above. At the end of the 4-hour post-NMDA incubation, cells were lysed with 300 μL buffer containing 20 mM Tris-HCL (pH 7.4 at 4° C.), 1% SDS, 5 mM EGTA, 5 mM EDTA, 1 mM DTT, and various protease inhibitors. Total cellular protein was precipitated by 100 μL of 100% trichloroacetic acid. The samples were centrifuged and the pelleted protein solubilized with 50 μl of 3M Tris base. […] The blots were then probed with rabbit antibrain spectrin antibody (primary antibody) followed by alkaline phosphatase-conjugated goat antirabbit immunoglobulin G antibody (secondary antibody). […] The SBP were quantified by densitometry (BioRad Model 620).

[3] = Table I, 4 mM CaCl2, pH 7.4, 25° C., 60 minutes, read-out: Inhibitory Activity Against Human Calpain I IC50
[4] = Table II (selectivity), read-out: Inhibitory Activity of Thiol-Acrylates, Calpain (IC50)

| Compound | IC50 (calpain I; [3]) | further results |
| --- | --- | --- |
| O=C(O)/C(S)=C/c1c[nH]c2ccc(F)cc12 [Example 4, 3-(5-fluoro-3-indolyl)-2-mercapto-2-propenoic Acid] | 0.45 µM |  |
| O=C(O)/C(S)=C/c1ccc(I)cc1 [Example 8, (Z)-2-propenoic Acid, 3-(4-iodophenyl)-2-mercapto] |  | IC50 (trypsin): > 500 µM; IC50 (papain): > 500 µM; IC50 (thermolysin): 204 µM; IC50 (calpain I): 0.36 µM |
| O=C(O)/C(S)=C/c1ccc(F)cc1 [Example 10, 2-Propenoic Acid, 3-(4-fluorophenyl)-2-mercapto] | 1.2 µM |  |
| CCn1c2ccccc2c2cc(/C=C(\S)C(=O)O)ccc21 [Example 12] | 1.1 µM |  |
| COc1ccc(/C(C)=C(\S)C(=O)O)cc1 [Example 14, (Z)-2-Butanoic Acid, 2-mercapto-3-(4-methoxyphenyl)] |  | inhibition at 200 µM (calpain I; at 200 μM, Table I, read-out: Inhibitory Activity Against Human Calpain I, % inhibition): 66% |
| O=C(O)/C(S)=C/c1ccc(-c2ccccc2)cc1 [Example 16, (Z)-2-Propenoic Acid, 3-[1,1'-biphenyl)-4-yl-2-mercapto] | 3 µM |  |
| O=C(O)/C(S)=C/c1ccc(OCc2ccccc2)cc1 [Example 18, (Z)-2-Propenoic Acid, 2-mercapto-3-[4-(phenylmethoxy)phenyl]] | 1.8 µM | block of NMDA-induced LDH release (in words) [1]: partially blocked |
| O=C(O)/C(S)=C/c1cccc2ccccc12 [Example 20, (Z)-2-Propenoic Acid, 2-mercapto-3-(1-naphthalenyl)] | 3.6 µM |  |
| O=C(O)/C(S)=C/c1c[nH]c2ccccc12 [Example 22, (Z)-2-Propenoic Acid, 3-(1H-indol-3-yl)-2-mercapto] | 1.3 µM | IC50 (trypsin): > 200 µM; IC50 (papain): > 200 µM; IC50 (thermolysin): 248 µM; spectrin breakdown product (SBP) formation, 150 kDa and 145 kDa (in words) [2]: partially blocked SBP formation; IC50 (calpain I; [4]): 1.3 µM |
| O=C(O)/C(S)=C/c1cc2ccccc2[nH]1 [Example 25, 3-(2-indolyl)-2-mercapto-2-propenoic Acid] | 1.7 µM |  |
| O=C(O)/C(S)=C/c1cc2ccccc2c2ccccc12 [Example 27, 3-(9--phenanthyl)-2-mercapto-2-propenoic Acid] | 3.1 µM |  |
| O=C(O)/C(S)=C/c1cccs1 [Example 29] | 4 µM |  |
| O=C(O)/C(S)=C/c1cc2ccccc2o1 [Example 31, (Z)-2-Propenoic Acid, 3-(2-benzofuranyl)-2-mercapto] | 3.2 µM |  |
| COc1ccc2cc(/C=C(\S)C(=O)O)ccc2c1 [Example 34, (Z)-2-Propenoic Acid, 2-mercapto-3-(6-methoxy-2-naphthalenyl)] | 2.1 µM |  |
| O=C(O)/C(S)=C/c1ccc2c(c1)OCO2 [Example 36, (Z)-2-propenoic acid, 3-(5-benzodioxoyl)-2-mercapto] | 1.2 µM |  |
| Cc1cc(/C=C(\S)C(=O)O)c(C)n1-c1ccccc1 [Example 38, (Z)-2-Propenoic Acid, 3-(2,5-dimethyl-1-phenyl-1H-pyrrol-3-yl)-2-mercapto] | 13.6 µM |  |
| CC(C)(C)c1ccc(/C=C(\S)C(=O)O)cc1 [Example 40, (Z)-2-propenoic Acid, 3-[4-(1,1-dimethylethyl)phenyl]-2-mercapto] | 7.8 µM |  |
| O=C(O)/C(S)=C/c1c(-c2ccc(Cl)cc2)[nH]c2ccccc12 [Example 42, (Z)-2-propenoic acid, 3-[2-(4-chlorophenyl)-1H-indol-3-yl]-2-mercapto] | 6 µM |  |
| O=C(O)/C(S)=C/c1ccc2c(c1)CCCC2 [Example 44, (Z)-2-propenoic acid, 2-mercapto-3-(5,6,7,8-tetrahydro-2-naphthalenyl)] | 1.7 µM |  |
| O=C(O)/C(S)=C/c1ccc(CCc2ccccc2)cc1 [Example 47, (Z)-2-Propenoic Acid, 2-mercapto-3-[4-(2-phenylethyl)-phenyl]] | 2.7 µM |  |
| O=C(O)/C(S)=C/c1ccsc1 [Example 49, (Z)-2-Propenoic Acid, 3-(3-thienyl)-2-mercapto] | 7.5 µM |  |
| O=C(O)/C(S)=C/c1ccccc1 [Example 51, 2-Propenoic Acid, 2-mercapto-3-phenyl] | 5.9 µM | IC50 (trypsin): > 200 µM; IC50 (papain): > 200 µM; IC50 (thermolysin): 367 µM; IC50 (calpain I; [4]): 5.9 µM |
| O=C(O)/C(S)=C/c1ccc2c(c1)Cc1ccccc1-2 [Example 53, 2-Propenoic Acid, 3-(9H-fluoren-2-yl)-2-mercapto] | 1.6 µM |  |
| C[C@]12N[C@H](Cc3ccccc31)c1ccccc12 [MK-801, reference compound] |  | block of NMDA-induced LDH release (in words) [1]: blockable; spectrin breakdown product (SBP) formation, 150 kDa and 145 kDa (in words) [2]: inhibited the SBP formation |
| CN[C@H](CC(=O)O)C(=O)O [NMDA, N-methyl-D-aspartate, reference compound] |  | LDH release from the cells ([1]; 500 μM NMDA 30 minutes, additional 4 hours): about 210 unit/mL |
